Results: the supplement of paper PMC12463676, “Small-molecule dissolution of stress granules by redox modulation benefits ALS models” (Nature Chemical Biology, 2025)

Compound: NC(=O)CCCCC1CCSS1 [lipoamide]
Assay: thermal stability z-score vs DMSO; higher = more thermally stabilized by treatment
Details: HeLa; lipoamide concentration 100 µM; arsenate co-treatment: none
Description: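 Cellular thermal proteome profiling in HeLa cells. Cells were treated with 100 µM lipoamide for 1 h, with or without 1 mM arsenate for a further 1 h, then heated to ten temperatures (37-66.3 °C), and soluble protein was quantified by TMT mass spectrometry relative to 0.1% DMSO controls. The thermal stability score (sum of log2 fold changes minus the abundance score) was transformed to a z-score; mean of n = 3 experiments.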
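Also: each temperature applied for 3 min, abundance score taken as mean log2 fold change at the two lowest temperatures, z-score obtained by mean subtraction and division by SD.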

UniProt O60239, sequence (O60239 whole entry): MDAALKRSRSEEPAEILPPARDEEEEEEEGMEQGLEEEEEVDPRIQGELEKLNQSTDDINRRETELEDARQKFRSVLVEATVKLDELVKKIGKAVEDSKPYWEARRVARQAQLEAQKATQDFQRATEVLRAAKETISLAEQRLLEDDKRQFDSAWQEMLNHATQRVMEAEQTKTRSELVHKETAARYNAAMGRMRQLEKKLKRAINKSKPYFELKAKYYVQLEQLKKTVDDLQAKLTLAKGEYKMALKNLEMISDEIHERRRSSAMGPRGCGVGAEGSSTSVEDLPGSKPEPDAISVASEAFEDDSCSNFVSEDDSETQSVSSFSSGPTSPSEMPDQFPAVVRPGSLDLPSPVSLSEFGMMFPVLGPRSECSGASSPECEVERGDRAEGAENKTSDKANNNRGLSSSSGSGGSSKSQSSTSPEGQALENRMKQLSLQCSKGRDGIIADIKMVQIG
UniProt O75054, sequence (O75054 whole entry): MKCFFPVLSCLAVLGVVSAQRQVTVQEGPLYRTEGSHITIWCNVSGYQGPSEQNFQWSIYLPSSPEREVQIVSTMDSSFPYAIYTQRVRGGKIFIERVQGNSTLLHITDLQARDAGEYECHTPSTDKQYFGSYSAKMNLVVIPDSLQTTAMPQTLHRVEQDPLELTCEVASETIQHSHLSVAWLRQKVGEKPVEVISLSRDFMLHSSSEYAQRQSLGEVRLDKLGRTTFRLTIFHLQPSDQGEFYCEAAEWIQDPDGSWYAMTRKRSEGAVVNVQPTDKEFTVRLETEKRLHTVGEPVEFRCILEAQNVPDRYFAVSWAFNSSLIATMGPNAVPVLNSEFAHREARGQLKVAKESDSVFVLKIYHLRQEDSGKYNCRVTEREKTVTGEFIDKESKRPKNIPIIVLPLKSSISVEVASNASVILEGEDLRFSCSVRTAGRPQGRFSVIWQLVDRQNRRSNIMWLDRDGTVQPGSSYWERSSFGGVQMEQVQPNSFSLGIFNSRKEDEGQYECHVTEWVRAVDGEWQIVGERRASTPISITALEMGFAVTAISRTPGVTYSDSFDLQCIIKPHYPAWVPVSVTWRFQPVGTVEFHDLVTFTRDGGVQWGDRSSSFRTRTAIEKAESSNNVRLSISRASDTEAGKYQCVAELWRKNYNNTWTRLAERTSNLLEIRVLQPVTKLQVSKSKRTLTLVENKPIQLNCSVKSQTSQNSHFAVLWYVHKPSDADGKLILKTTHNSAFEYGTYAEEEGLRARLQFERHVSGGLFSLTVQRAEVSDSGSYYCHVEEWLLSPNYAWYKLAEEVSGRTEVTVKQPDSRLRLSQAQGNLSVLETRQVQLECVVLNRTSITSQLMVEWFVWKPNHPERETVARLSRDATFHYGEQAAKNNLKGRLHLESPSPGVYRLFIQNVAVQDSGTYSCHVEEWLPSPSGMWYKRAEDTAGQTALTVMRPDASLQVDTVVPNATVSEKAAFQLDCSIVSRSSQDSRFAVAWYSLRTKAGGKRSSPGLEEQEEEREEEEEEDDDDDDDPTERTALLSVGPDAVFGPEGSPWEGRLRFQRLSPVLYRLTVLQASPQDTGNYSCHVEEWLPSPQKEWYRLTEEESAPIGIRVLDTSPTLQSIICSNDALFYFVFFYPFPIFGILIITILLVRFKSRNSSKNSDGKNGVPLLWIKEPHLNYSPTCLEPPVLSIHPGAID
UniProt P40692, sequence (P40692 whole entry): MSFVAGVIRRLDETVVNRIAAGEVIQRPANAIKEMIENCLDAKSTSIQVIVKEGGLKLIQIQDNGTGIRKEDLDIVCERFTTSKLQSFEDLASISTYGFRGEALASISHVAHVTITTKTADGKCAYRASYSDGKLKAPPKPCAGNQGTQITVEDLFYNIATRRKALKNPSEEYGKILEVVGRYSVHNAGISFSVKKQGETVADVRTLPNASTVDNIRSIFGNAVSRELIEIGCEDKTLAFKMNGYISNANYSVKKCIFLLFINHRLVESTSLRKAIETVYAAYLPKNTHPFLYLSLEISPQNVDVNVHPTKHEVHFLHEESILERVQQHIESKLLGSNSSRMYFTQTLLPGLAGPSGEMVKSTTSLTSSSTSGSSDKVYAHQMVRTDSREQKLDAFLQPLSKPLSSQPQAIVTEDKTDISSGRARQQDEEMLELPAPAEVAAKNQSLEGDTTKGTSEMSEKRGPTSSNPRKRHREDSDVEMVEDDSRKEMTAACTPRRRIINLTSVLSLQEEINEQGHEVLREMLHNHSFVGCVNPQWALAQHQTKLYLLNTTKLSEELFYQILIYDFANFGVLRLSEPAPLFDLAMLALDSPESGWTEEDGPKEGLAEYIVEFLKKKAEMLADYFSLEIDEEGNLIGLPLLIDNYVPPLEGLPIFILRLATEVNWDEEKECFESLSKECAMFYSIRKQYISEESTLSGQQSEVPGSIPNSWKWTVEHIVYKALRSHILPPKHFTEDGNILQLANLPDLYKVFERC
UniProt Q96HR8, sequence (Q96HR8 whole entry): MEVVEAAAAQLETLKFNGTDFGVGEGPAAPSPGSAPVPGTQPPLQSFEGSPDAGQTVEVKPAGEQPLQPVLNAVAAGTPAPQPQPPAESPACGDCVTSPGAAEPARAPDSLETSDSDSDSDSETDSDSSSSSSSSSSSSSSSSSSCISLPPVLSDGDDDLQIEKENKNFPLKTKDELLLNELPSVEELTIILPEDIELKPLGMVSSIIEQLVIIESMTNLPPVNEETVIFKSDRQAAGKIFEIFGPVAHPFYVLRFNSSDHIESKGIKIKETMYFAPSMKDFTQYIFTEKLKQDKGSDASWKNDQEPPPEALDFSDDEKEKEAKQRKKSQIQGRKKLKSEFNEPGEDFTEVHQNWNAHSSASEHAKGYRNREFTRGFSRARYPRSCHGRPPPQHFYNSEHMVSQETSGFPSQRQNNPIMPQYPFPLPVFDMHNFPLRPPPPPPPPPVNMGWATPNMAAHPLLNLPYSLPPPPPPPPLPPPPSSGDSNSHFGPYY
UniProt Q96RU3, sequence (Q96RU3 whole entry): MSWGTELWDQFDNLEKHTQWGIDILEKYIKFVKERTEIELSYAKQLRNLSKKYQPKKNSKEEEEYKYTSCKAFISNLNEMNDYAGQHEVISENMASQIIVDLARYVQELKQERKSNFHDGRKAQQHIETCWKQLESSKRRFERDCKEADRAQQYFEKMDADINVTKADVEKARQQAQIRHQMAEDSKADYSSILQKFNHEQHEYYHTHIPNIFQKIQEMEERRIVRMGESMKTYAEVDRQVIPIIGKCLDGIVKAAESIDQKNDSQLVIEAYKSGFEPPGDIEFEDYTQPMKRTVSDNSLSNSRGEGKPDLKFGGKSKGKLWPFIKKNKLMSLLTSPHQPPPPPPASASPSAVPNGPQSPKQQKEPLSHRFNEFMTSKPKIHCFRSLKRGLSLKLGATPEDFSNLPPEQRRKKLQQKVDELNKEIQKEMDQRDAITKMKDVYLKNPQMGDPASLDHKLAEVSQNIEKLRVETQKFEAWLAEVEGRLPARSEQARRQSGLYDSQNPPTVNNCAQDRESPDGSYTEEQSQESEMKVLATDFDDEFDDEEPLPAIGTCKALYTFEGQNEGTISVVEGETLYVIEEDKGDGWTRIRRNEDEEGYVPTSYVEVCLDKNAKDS
UniProt Q8IWC1, sequence (Q8IWC1 whole entry): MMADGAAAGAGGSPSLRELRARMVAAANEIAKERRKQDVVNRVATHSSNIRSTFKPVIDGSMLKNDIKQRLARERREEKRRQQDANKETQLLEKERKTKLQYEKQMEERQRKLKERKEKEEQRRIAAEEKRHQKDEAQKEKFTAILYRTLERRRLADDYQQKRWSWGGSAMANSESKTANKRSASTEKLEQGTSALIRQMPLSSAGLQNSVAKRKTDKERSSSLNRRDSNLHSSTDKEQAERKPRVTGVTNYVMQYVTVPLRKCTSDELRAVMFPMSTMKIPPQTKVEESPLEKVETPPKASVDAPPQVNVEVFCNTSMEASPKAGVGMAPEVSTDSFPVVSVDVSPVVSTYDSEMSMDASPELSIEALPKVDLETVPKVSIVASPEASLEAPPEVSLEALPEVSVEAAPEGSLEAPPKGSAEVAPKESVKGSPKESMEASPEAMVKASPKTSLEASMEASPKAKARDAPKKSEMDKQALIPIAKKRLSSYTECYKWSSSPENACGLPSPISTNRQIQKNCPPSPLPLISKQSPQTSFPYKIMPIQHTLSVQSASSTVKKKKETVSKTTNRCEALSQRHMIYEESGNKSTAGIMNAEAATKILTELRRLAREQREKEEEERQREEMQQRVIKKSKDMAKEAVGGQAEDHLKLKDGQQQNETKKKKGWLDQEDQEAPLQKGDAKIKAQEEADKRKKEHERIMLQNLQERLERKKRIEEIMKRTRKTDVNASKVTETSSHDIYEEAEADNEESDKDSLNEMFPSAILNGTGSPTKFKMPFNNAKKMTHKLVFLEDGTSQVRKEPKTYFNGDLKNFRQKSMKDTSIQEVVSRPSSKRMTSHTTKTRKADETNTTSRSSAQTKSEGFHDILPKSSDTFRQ
UniProt P06730, sequence (P06730 whole entry): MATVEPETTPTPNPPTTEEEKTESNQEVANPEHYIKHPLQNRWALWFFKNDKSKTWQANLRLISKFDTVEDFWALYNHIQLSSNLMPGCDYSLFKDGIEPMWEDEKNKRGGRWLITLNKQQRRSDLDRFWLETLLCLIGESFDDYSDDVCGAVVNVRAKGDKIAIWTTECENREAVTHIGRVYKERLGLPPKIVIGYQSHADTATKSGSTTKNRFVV
UniProt Q8WUH1, sequence (Q8WUH1 whole entry): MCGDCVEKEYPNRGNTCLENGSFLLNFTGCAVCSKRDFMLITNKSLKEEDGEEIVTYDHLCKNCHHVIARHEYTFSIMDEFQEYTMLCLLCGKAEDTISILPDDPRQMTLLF
UniProt Q6FIF0, sequence (Q6FIF0 whole entry): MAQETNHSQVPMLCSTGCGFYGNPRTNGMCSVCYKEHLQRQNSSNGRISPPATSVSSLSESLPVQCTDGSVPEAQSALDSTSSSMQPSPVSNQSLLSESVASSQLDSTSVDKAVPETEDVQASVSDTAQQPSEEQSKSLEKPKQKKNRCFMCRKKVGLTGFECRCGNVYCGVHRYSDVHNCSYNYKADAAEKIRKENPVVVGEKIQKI

Row | Target | thermal stability z-score
1 | DYNC2H1 (UniProt Q8NCM8) | -0.28
2 | TMEM206 (UniProt Q9H813) | 0.0248
3 | RALGPS2 (UniProt Q86X27) | 0.191
4 | FNBP1 (UniProt Q96RU3) | 0.0859
5 | ZW10 (UniProt O43264) | -0.137
6 | NAF1 (UniProt Q96HR8) | 0.23
7 | ZFAND6 (UniProt Q6FIF0) | 0.219
8 | EIF4E (UniProt P06730) | -0.135
9 | KAT7 (UniProt O95251) | -0.0536
10 | APBB2 (UniProt Q92870) | -0.11
11 | RIOK2 (UniProt Q9BVS4) | -0.423
12 | GAPVD1 (UniProt Q14C86) | -0.206
13 | RARS (UniProt P54136) | -0.305
14 | RPS14 (UniProt P62263) | 0.21
15 | TGFBR1 (UniProt P36897) | 0.245
16 | RTCA (UniProt O00442) | 0.21
17 | EHMT2 (UniProt Q96KQ7) | 0.0958
18 | CORO7 (UniProt P57737) | 0.174

Row | Target | thermal stability z-score
19 | LMAN2L (UniProt Q9H0V9) | -1.5
20 | CHURC1 (UniProt Q8WUH1) | -0.988
21 | MAP7D3 (UniProt Q8IWC1) | -0.509
22 | SH3BP5 (UniProt O60239) | -0.17
23 | AARS (UniProt P49588) | -0.297
24 | ABHD10 (UniProt Q9NUJ1) | -0.241
25 | WDSUB1 (UniProt Q8N9V3) | 0.878
26 | PA2G4 (UniProt Q9UQ80) | 0.183
27 | CCDC53 (UniProt Q9Y3C0) | -1.22
28 | IGSF3 (UniProt O75054) | -0.247
29 | GLT8D1 (UniProt Q68CQ7) | -0.593
30 | CHMP2B (UniProt Q9UQN3) | 0.348
31 | C5ORF51 (UniProt A6NDU8) | -0.695
32 | FBXW11 (UniProt Q9UKB1) | -0.0669
33 | SARS (UniProt P49591) | 1.23
34 | CDK5RAP1 (UniProt Q96SZ6) | 0.198
35 | MLH1 (UniProt P40692) | 0.372
36 | TMA16 (UniProt Q96EY4) | -0.0887

Compound: O=[As]([O-])(O)O.[K+] [potassium arsenate]
Assay: as above
Details: HeLa; arsenate concentration 1 mM
Description: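 Cellular thermal proteome profiling in HeLa cells treated with 1 mM arsenate for 1 h (DMSO pretreatment), heated to ten temperatures (37-66.3 °C). Soluble protein was quantified by TMT mass spectrometry relative to DMSO controls; the thermal stability score was transformed to a z-score; mean of n = 3 experiments.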

Row | Target | thermal stability z-score
37 | DLG1 (UniProt Q12959) | -0.34
38 | HACD1 (UniProt B0YJ81) | -0.388
39 | LRRC47 (UniProt Q8N1G4) | 1.06
40 | ISG20 (UniProt Q96AZ6) | 0.863
41 | ABCF1 (UniProt Q8NE71) | 1.14
42 | GATAD2A (UniProt Q86YP4) | -0.412
43 | NDUFB7 (UniProt P17568) | -0.462
44 | LIG3 (UniProt P49916) | -1.05
45 | CD97 (UniProt P48960) | 0.472
46 | PRNP | 0.0499
47 | RNF220 (UniProt Q5VTB9) | -0.283
48 | GDPGP1 (UniProt Q6ZNW5) | -0.786
49 | POLR3A (UniProt O14802) | -1.69
50 | ZMPSTE24 (UniProt O75844) | 0.325
51 | BAG2 (UniProt O95816) | -0.106
52 | MTRF1L (UniProt Q9UGC7) | 0.646
53 | MRPL43 (UniProt Q8N983) | 0.166
54 | TPM3 (UniProt P06753) | 0.131
55 | RAB34 | -0.0345
56 | DOHH (UniProt Q9BU89) | 0.721
57 | ABCE1 (UniProt P61221) | -0.471
58 | MRPS12 (UniProt O15235) | 0.233
59 | SCAF8 (UniProt Q9UPN6) | 0.155
60 | PITPNB (UniProt P48739) | -1.18

Row | Target | thermal stability z-score
61 | SNX30 (UniProt Q5VWJ9) | -0.275
62 | IFIT2 (UniProt P09913) | -0.392
63 | LAMTOR1 (UniProt Q6IAA8) | 0.827
64 | TPBG (UniProt Q13641) | -0.766
65 | SNX15 (UniProt Q9NRS6) | 0.121
66 | RAB8B (UniProt Q92930) | -0.115
67 | NFS1 (UniProt Q9Y697) | -1.15
68 | EEF1D (UniProt P29692) | -0.0726
69 | ESYT2 (UniProt A0FGR8) | -0.306
70 | WRAP53 (UniProt Q9BUR4) | -0.337
71 | CMSS1 (UniProt Q9BQ75) | -2.12
72 | DYNC2H1 (UniProt Q8NCM8) | -0.209
73 | TMEM206 (UniProt Q9H813) | -0.299
74 | RALGPS2 (UniProt Q86X27) | -0.177
75 | FNBP1 (UniProt Q96RU3) | 0.336
76 | ZW10 (UniProt O43264) | 0.692
77 | NAF1 (UniProt Q96HR8) | 0.149
78 | ZFAND6 (UniProt Q6FIF0) | -0.0508
79 | EIF4E (UniProt P06730) | 0.461
80 | KAT7 (UniProt O95251) | -0.144
81 | APBB2 (UniProt Q92870) | 0.0987
82 | RIOK2 (UniProt Q9BVS4) | -0.171
83 | GAPVD1 (UniProt Q14C86) | 0.0188
84 | RARS (UniProt P54136) | 0.39

Row | Target | thermal stability z-score
85 | RPS14 (UniProt P62263) | -0.926
86 | TGFBR1 (UniProt P36897) | -0.162
87 | RTCA (UniProt O00442) | -0.695
88 | EHMT2 (UniProt Q96KQ7) | -0.273
89 | CORO7 (UniProt P57737) | -0.177
90 | LMAN2L (UniProt Q9H0V9) | 0.373
91 | CHURC1 (UniProt Q8WUH1) | -0.122
92 | MAP7D3 (UniProt Q8IWC1) | -1.36
93 | SH3BP5 (UniProt O60239) | -0.00483
94 | AARS (UniProt P49588) | -1.29
95 | ABHD10 (UniProt Q9NUJ1) | -0.374
96 | WDSUB1 (UniProt Q8N9V3) | 0.867
97 | PA2G4 (UniProt Q9UQ80) | 1.4
98 | CCDC53 (UniProt Q9Y3C0) | -0.495
99 | IGSF3 (UniProt O75054) | -0.196
100 | GLT8D1 (UniProt Q68CQ7) | 0.145
101 | CHMP2B (UniProt Q9UQN3) | 0.573
102 | C5ORF51 (UniProt A6NDU8) | -0.796
103 | FBXW11 (UniProt Q9UKB1) | 0.814
104 | SARS (UniProt P49591) | 2.1
105 | CDK5RAP1 (UniProt Q96SZ6) | 0.157
106 | MLH1 (UniProt P40692) | 1.04
107 | TMA16 (UniProt Q96EY4) | -0.0752
